Measurements: PMC2410175, “A phase I and pharmacological study of the matrix metalloproteinase inhibitor BB-3644 in patients with solid tumours” (British Journal of Cancer, 2004)
Where two headings read alike, the source gives them in different places.

Legend:
[1] = ref Wojtowicz-Praga et al, 1998, cited from earlier work
gelatinase A = conditions: background data, no reference given; read-out: IC50 against gelatinase A; cited from earlier work
[2] = rhesus monkey, in vivo; cited from earlier work
[3] = cited from earlier work
[4] = tested on: MDA-435 human breast carcinoma; parameters: method as in British Biotech, unpublished data; conditions: MDA-435 human breast carcinoma model; ref British Biotech, unpublished data; cited from earlier work
[5] = parameters: method as in British Biotech, unpublished data; conditions: marmosets; ref British Biotech, unpublished data; cited from earlier work
solid tumours = assay: Assessment of response in the phase I study; assay type: in vivo, patients
Procedure: Disease assessment was performed at baseline and repeated at 84 days or at withdrawal from the study. Patients were reviewed 4 weeks after withdrawal from the study.
Response was formally assessed radiologically after 3 months of therapy.

clinical = conditions: human, in vivo; for half-life: T1/2; for AUC(0-t): AUC0–24
Procedure: Blood samples were collected in heparinised tubes before treatment, every 15 min for 2 h, at 2 h 30 min, 3, 4, 6, 8, 10 and 24 h on days 1 and 14 for the measurement of BB-3644. Blood samples were kept on ice. They were centrifuged at 4°C (1500 g for 10 min) within 30 min of collection. The supernatant plasma was collected and frozen at −70°C or cooler, until sent for analysis. Samples were analysed centrally in the Department of Drug Metabolism and Pharmacokinetics at British Biotech, UK.
Samples were analysed for BB-3644 content using a validated reverse-phase HPLC method with mass spectrometric detection. The limit of quantification was 1 ng ml^−1. The data were analysed using WinNonlin v2.1 Standard version (Pharsight Corporation, USA). PK parameters were derived from individual plasma concentration–time data, using noncompartmental analysis.
On the days of PK sampling, only the morning dose of BB-3644 was taken.

B16-BL6 murine melanoma = tested on: B16-BL6 murine melanoma; parameters: method as in British Biotech, unpublished data; conditions: B16-BL6 murine melanoma model; ref British Biotech, unpublished data; cited from earlier work
[6] = Phase I dose-escalation study: DLT, MTD and adverse events
Procedure: Patients over the age of 18 were required to be of ECOG performance status 0, 1 or 2, and to have a predicted survival of at least 3 months.
This was a phase I, open-label, dose-escalation study. BB-3644 was supplied as capsules comprising 5, 10, 20 and 40 mg BB-3644 (with maize starch, colloidal silica, magnesium stearate and lactose) by British Biotech Pharmaceuticals Ltd, UK. BB-3644 was administered orally twice daily for 84 days to cohorts of patients at doses 5, 10, 20 and 30 mg. […] Dose-limiting toxicity was defined as ‘an adverse reaction likely to be caused by the study drug and unlikely to be attributed to concurrent disease or other drugs or chemicals’. Essentially, any toxicity graded by CTC criteria as at least grade II was considered to be a DLT, as this could preclude chronic oral administration of a drug. If one patient experienced DLT, the cohort size was increased to six patients for that dose level. Further dose escalation was performed, provided that no more than […] patients experienced DLT by day 28. Nine patients were to be treated at the highest dose level. Patients experiencing DLT were eligible to continue treatment at a reduced dose following resolution of toxicity.
Physical examination, chest radiograph, haematology and serum chemistry were checked at baseline, every 4 weeks and at study termination. […] Patients were also reviewed by an opthalmologist at these times, to check the visual acuity, visual fields, and examine the whole eye and the fundi.

collagenase-3 = conditions: background data, no reference given; read-out: IC50 against collagenase-3; cited from earlier work
[7] = tested on: HODP.IP rat mammary carcinoma cells; parameters: method as in British Biotech, unpublished data; conditions: lung colonisation model, ref British Biotech, unpublished data; cited from earlier work
enkephalinase = conditions: background data, no reference given; read-out: IC50 against enkephalinase; cited from earlier work
[8] = tested on: processing of cell-bound TNF-α; conditions: relative to marimastat; background data, no reference given; cited from earlier work
[9] = of the 13 patients that completed 12 weeks of therapy

CNC(=O)[C@@H](NC(=O)[C@H](CC(C)C)[C@H](O)C(=O)NO)C(C)(C)C [marimastat]
treatment-limiting toxicities ([1]; clinical testing of marimastat, Tierney et al, 1999, Evans et al, 2001): Musculoskeletal pain and inflammation | AUC achieved at the MTD ([1]; phase I studies of marimastat): 2623 ng·h/mL

CO[C@H](C(=O)NO)[C@@H](CC(C)C)C(=O)N[C@H](C(=O)Nc1ccccn1)C(C)(C)C [BB-3644]
IC50 (gelatinase A): 80 nM | principal toxicity [2]: cell debris in the gall bladder, with mucosal erosions and epithelial hyperplasia | toxicity at higher doses ([3]; dog, in vivo): Encephalopathy | ocular changes ([3]; dogs, ref British Biotech, unpublished data): conjunctival hyperaemia, chemosis, corneal stromal limbal vascularisation and diffuse corneal haze and flocculation | activity in inhibiting tumour growth [4]: activity in inhibiting tumour growth | joint toxicity [5]: induced inflammation of joint ligaments and tendons | principal toxicity [5]: cell debris in the gall bladder, with mucosal erosions and epithelial hyperplasia | therapeutic activity, overall conclusion (solid tumours; 22 patients, 5 to 30 mg bd): no evidence of beneficial therapeutic activity | patients with progressive disease radiologically (solid tumours; [9]): 11 | patients with stable disease radiologically (solid tumours; [9]): two | time to mean maximal concentration, range over dose levels (clinical): 30 to 90 min | T1/2 (clinical; 5 mg): 4 h | Tmax (clinical; 5 mg): 1 h | half-life (clinical; 5 mg): 2 h | Tmax (clinical; 5 mg, Tmax): 0.75 h | Cmax (clinical; 10 mg): 179 ng/mL | T1/2 (clinical; 10 mg): 2.5 h | Tmax (clinical; 10 mg): 1 h | Cmax (clinical; 10 mg, Cmax): 114 ng/mL | half-life (clinical; 10 mg): 1.5 h | Tmax (clinical; 10 mg, Tmax): 0.5 h | AUC0–24 (clinical; 20 mg): 1248 ng·h/mL | Cmax (clinical; 20 mg): 282 ng/mL | T1/2 (clinical; 20 mg): 3 h | Tmax (clinical; 20 mg): 0.75 h | AUC(0-t) (clinical; 20 mg): 781 ng·h/mL | Cmax (clinical; 20 mg, Cmax): 232 ng/mL | half-life (clinical; 20 mg): 1.5 h | Tmax (clinical; 20 mg, Tmax): 0.5 h | AUC0–24 (clinical; 30 mg): 4401 ng·h/mL | Cmax (clinical; 30 mg): 536 ng/mL | Tmax (clinical; 30 mg): 1.75 h | AUC(0-t) (clinical; 30 mg): 2520 ng·h/mL | Cmax (clinical; 30 mg, Cmax): 315 ng/mL | half-life (clinical; 30 mg): 6 h | Tmax (clinical; 30 mg, Tmax): 1.5 h | activity in inhibiting tumour growth (B16-BL6 murine melanoma): activity in inhibiting tumour growth | maximum tolerated dose (MTD) ([6]; 28 days of oral treatment): 20 mg bd | maximum tolerated dose (MTD) ([6]; chronic oral dosing (>28 days, up to 84 days)): 5 mg bd | patients with musculoskeletal DLTs (number) ([6]; human, in vivo, 84 days): 14 | patients with musculoskeletal DLTs (share) ([6]; human, in vivo, 84 days): 64% | SAE considered possibly related to the study drug ([6]; in vivo): thromboembolic episodes | ophthalmological or gall bladder-related toxicity ([6]; in vivo): no significant opthalmological or gall bladder-related toxicity | patients who developed phlebitis ([6]; in vivo): Two | patients with dose-limiting malaise (NCI CTC toxicity >grade 1) ([6]; in vivo): Two | dose-limiting toxicity (DLT), nature ([6]; in vivo, po): musculoskeletal pain | IC50 (collagenase-3): 3 nM | tendinitis of the hind limbs [7]: did not cause tendinitis of the hind limbs | IC50 (enkephalinase): 40 nM | fold more active than marimastat in inhibiting the processing of cell-bound TNF-α [8]: > 10 fold
